Experimental data from patent US20120252792A1, “METHODS AND COMPOSITIONS FOR MODULATING RHO-MEDIATED GENE TRANSCRIPTION” (THE REGENTS OF THE UNIVERSITY OF MICHIGAN, priority 2009, published 2012).

Experiments:
[1] = system: PC-3 prostate cancer cells; assay: WST1 cell viability assay; format: cell-based, human; conditions: Homo sapiens, PC-3 cells, just before lysis; for inhibition at 10 µM: PC-3, 10 μM, read-out: % inh WST-1 (10 μM); for inhibition at 100 µM: PC-3, 100 μM, read-out: % inh WST-1 (100 μM)
Description: WST1 Cell Viability Assay: One hour prior to cell lysis for the dual luciferase assay, 10 μl per well of WST1 reagent (Roche) was added to the 96-well plates. Plates were incubated for 1 hour at 37° C. and 5% CO2. Cell viability was measured by WST1 absorbance at 450 nm with a Victor2 (Perkin-Elmer) plate reader.

Rho/MKL1 pathway = assay: SRE.L-firefly luciferase reporter (dual luciferase assay), Gα12QL-transfected PC-3 cells; format: cell-based, human; conditions: Homo sapiens; for inhibition at 100 µM / inhibition at 10 µM: DMSO alone = 0%; for inhibition at 100 µM: read-out: % inh SRE.L (100 μM); for inhibition at 10 µM: read-out: % inh SRE.L (10 μM)
Description: Dual Luciferase Assay: Seed PC-3 prostate cancer cells (40,000 cells/well) were grown in 96-well plates in 10% FBS containing DMEM medium. Cells were transiently transfected with the Gα12QL activator of the Rho/MKL1 pathway, along with the SRE.L-firefly luciferase reporter construct for 6 hours. Additionally, cells were co-transfected with the TK-Renilla luciferase reporter as an indicator of non-specific compound effects. Various concentrations of selected compounds were added to the 96-well plates. Plates were incubated for 19 hours at 37° C. and 5% CO2 in 0.5% FBS containing DMEM medium. Cells were lysed with 1X Passive Lysis Buffer (Promega). Plates were incubated for 30 minutes at room temperature. Luminescence counts were read with a Victor2 (Perkin-Elmer) plate reader.

Compound	inhibition at 10 µM [1] [%]	inhibition at 100 µM [1] [%]	IC50 (Rho/MKL1 pathway; 19 h) [µM]	IC50 (Rho/MKL1 pathway; 19 hrs) [µM]	inhibition at 100 µM (Rho/MKL1 pathway; 19 h) [%]	inhibition at 10 µM (Rho/MKL1 pathway; 19 h) [%]
O=C(Nc1ccc(Cl)cc1)C1CCCN(C(=O)c2cc(C(F)(F)F)cc(C(F)(F)F)c2)C1 (centres unmarked) [Compound 4, 1-(3,5-bis(trifluoromethyl)benzoyl)-N-(4-chlorophenyl)piperidine-3-carboxamide]	0	14				
COc1ccc(NC(=O)CONC(=O)c2cc(C(F)(F)F)cc(C(F)(F)F)c2)cc1Cl [Compound 9, N-(2-(3-chloro-4-methoxyphenylamino)-2-oxoethoxy)-3,5-bis(trifluoromethyl)benzamide]			11.4			
CN(C(=O)CONC(=O)c1cc(C(F)(F)F)cc(C(F)(F)F)c1)c1ccc(Cl)cc1 [Compound 11, N-(2-((4-chlorophenyl)(methyl)amino)-2-oxoethoxy)-3,5-bis(trifluoromethyl)benzamide]			111			
COc1ccc(NC(=O)C2CCCN(C(=O)c3cc(C(F)(F)F)cc(C(F)(F)F)c3)C2)cc1Cl (centres unmarked) [Compound 12, 1-(3,5-bis(trifluoromethyl)benzoyl)-N-(3-chloro-4-methoxyphenyl)piperidine-3-carboxamide]			6			
COc1ccc(NC(=O)CCNC(=O)c2cc(C(F)(F)F)cc(C(F)(F)F)c2)cc1Cl [Compound 13, N-(3-(3-chloro-4-methoxyphenylamino)-3-oxopropyl)-3,5-bis(trifluoromethyl)benzamide]			142			
O=C(c1cc(C(F)(F)F)cc(C(F)(F)F)c1)N1CCC(Nc2ccc(Cl)cc2)CC1 [Compound 17, (3,5-bis(trifluoromethyl)phenyl)(4-(4-chlorophenylamino)piperidin-1-yl)methanone]				10.8		
COc1ccc(NCCCNC(=O)c2cc(C(F)(F)F)cc(C(F)(F)F)c2)cc1Cl [Compound 20, N-(3-(3-chloro-4-methoxyphenylamino)propyl)-3,5-bis(trifluoromethyl)benzamide]			9.9			
COc1cc(NCCCNC(=O)c2cc(C(F)(F)F)cc(C(F)(F)F)c2)ccc1Cl [Compound 21, N-(3-(4-chloro-3-methoxyphenylamino)propyl)-3,5-bis(trifluoromethyl)benzamide]			7.3			
O=C(c1cc(C(F)(F)F)cc(C(F)(F)F)c1)N1CCC(=O)N(c2ccc(Cl)cc2)CC1 [Compound 24, 1-(3,5-bis(trifluoromethyl)benzoyl)-4-(4-chlorophenyl)-1,4-diazepan-5-one]			> 100		30	
O=C(CCNC(=O)c1cc(C(F)(F)F)cc(C(F)(F)F)c1)NCc1ccc(Cl)cc1 [Compound 25, N-(3-(4-chlorobenzylamino)-3-oxopropyl)-3,5-bis(trifluoromethyl)benzamide]			5			
O=C(NC1CC(=O)N(c2ccc(Cl)cc2)C1)OCc1ccccc1 (centres unmarked) [Compound 31, Benzyl 1-(4-chlorophenyl)-5-oxopyrrolidin-3-ylcarbamate]			54.7			
O=C(N[C@@H]1CCC[C@@H]1C(=O)Nc1ccc(Cl)cc1)c1cc(C(F)(F)F)cc(C(F)(F)F)c1 [Compound 39]			> 100			
O=C(CCc1cn(-c2cc(C(F)(F)F)cc(C(F)(F)F)c2)nn1)Nc1ccc(Cl)cc1 [Compound 40]			> 100			
O=C(NCCc1cn(-c2ccc(Cl)cc2)nn1)c1cc(C(F)(F)F)cc(C(F)(F)F)c1 [Compound 41]			> 100			
O=C(NCCCNc1ccc(Cl)nc1)c1cc(C(F)(F)F)cc(C(F)(F)F)c1 [Compound 42, N-(3-((6-chloropyridin-3-yl)amino)propyl)-3,5-bis(trifluoromethyl)benzamide]	-7.4	64.7	24.4		95.1	-1.7
O=C(NCCCNc1ccc(Cl)cc1)c1cc(F)cc(F)c1 [Compound 43, N-(3-((4-chlorophenyl)amino)propyl)-3,5-difluorobenzamide]	-9.9	73	34.7		95.7	-6.5

Compound	inhibition at 10 µM [1] [%]	inhibition at 100 µM [1] [%]	IC50 (Rho/MKL1 pathway; 19 h) [µM]	IC50 (Rho/MKL1 pathway; 19 hrs) [µM]	inhibition at 100 µM (Rho/MKL1 pathway; 19 h) [%]	inhibition at 10 µM (Rho/MKL1 pathway; 19 h) [%]
O=C(NCCCNc1ccc(Cl)cn1)c1cc(C(F)(F)F)cc(C(F)(F)F)c1 [Compound 44, N-(3-((5-chloropyridin-2-yl)amino)propyl)-3,5-bis(trifluoromethyl)benzamide]	17.6	39.4	654		82.9	20.5
O=C(NC1CC(=O)N(c2ccc(Cl)cc2)C1)OCc1cc(C(F)(F)F)cc(C(F)(F)F)c1 (centres unmarked) [Compound 45, 3,5-bis(trifluoromethyl)benzyl (1-(4-chlorophenyl)-5-oxopyrrolidin-3-yl)carbamate]	0.6	8.4	13.4		68	9.4
O=C(NC1CC(=O)N(c2ccc(Cl)cc2)C1)OCc1cc(F)cc(F)c1 (centres unmarked) [Compound 46, 3,5-difluorobenzyl (1-(4-chlorophenyl)-5-oxopyrrolidin-3-yl)carbamate]	0.1	67.5			76.1	13.7
O=C(NC1CC(=O)N(c2ccc(Cl)cc2)C1)c1cc(C(F)(F)F)cc(C(F)(F)F)c1 (centres unmarked) [Compound 47, N-(1-(4-chlorophenyl)-5-oxopyrrolidin-3-yl)-3,5-bis(trifluoromethyl)benzamide]	-0.8	14.3	18		57.8	18
O=C1CC(NC(=O)c2cc(C(F)(F)F)cc(C(F)(F)F)c2)c2cc(Cl)ccc2N1 (centres unmarked) [Compound 48, N-(6-chloro-2-oxo-1,2,3,4-tetrahydroquinolin-4-yl)-3,5-bis(trifluoromethyl)benzamide]	4.3	-2.7			2.5	4.9
O=C(NC1CC(=O)N(c2ccc(Cl)cc2)C1)c1cc(F)cc(F)c1 (centres unmarked) [Compound 49, N-(1-(4-chlorophenyl)-5-oxopyrrolidin-3-yl)-3,5-difluorobenzamide]	-6.1	0.6			13.4	-8.4
FC(F)(F)c1cc(CN2CCCC(CNc3ccc(Cl)cc3)C2)cc(C(F)(F)F)c1 (centres unmarked) [Compound 50, N-((1-(3,5-bis(trifluoromethyl)benzyl)piperidin-3-yl)methyl)-4-chloroaniline]	20.9	32.2			70.2	0.9
O=C(Nc1cc(C(F)(F)F)cc(C(F)(F)F)c1)C1CC(=O)N(c2ccc(Cl)cc2)C1 (centres unmarked) [Compound 51, N-(3,5-bis(trifluoromethyl)phenyl)-1-(4-chlorophenyl)-5-oxopyrrolidine-3-carboxamide]	55.9	74.6			99.2	74.3
COc1cc(N2CC(NC(=O)c3cc(C(F)(F)F)cc(C(F)(F)F)c3)CC2=O)ccc1Cl (centres unmarked) [Compound 52, N-(1-(4-chloro-3-methoxyphenyl)-5-oxopyrrolidin-3-yl)-3,5-bis(trifluoromethyl)benzamide]	-0.3	42.2			16.9	-18.4
O=C(NCC1CCN(c2ccc(Cl)cc2)C1=O)c1cc(C(F)(F)F)cc(C(F)(F)F)c1 (centres unmarked) [Compound 53, N-((1-(4-chlorophenyl)-2-oxopyrrolidin-3-yl)methyl)-3,5-bis(trifluoromethyl)benzamide]	7.9	26.9			32.3	14.1
O=C1Nc2ccc(Cl)cc2C1=CNC(=O)c1cc(C(F)(F)F)cc(C(F)(F)F)c1 [Compound 54, N-((5-chloro-2-oxoindolin-3-ylidene)methyl)-3,5-bis(trifluoromethyl)benzamide]	10.6	17.7			12.2	6.5
COc1ccc(N2CC(NC(=O)c3cc(C(F)(F)F)cc(C(F)(F)F)c3)CC2=O)cc1Cl (centres unmarked) [Compound 55, N-(1-(3-chloro-4-methoxyphenyl)-5-oxopyrrolidin-3-yl)-3,5-bis(trifluoromethyl)benzamide]	7.4	23.9			26	4.5
O=C(c1cc(C(F)(F)F)cc(C(F)(F)F)c1)N1CCCC(CNc2ccc(Cl)cc2)C1 (centres unmarked) [Compound 56]	24.8	22.4			8.3	11.5
CC(C)(C)OC(=O)NC1CCN(c2ccc(Cl)cc2)C1 (centres unmarked) [Compound 57, tert-butyl (1-(4-chlorophenyl)pyrrolidin-3-yl)carbamate]	9.2	21.1			18.7	-44.4
O=C(NC1CCN(c2ccc(Cl)cc2)C1)c1cc(C(F)(F)F)cc(C(F)(F)F)c1 (centres unmarked) [Compound 58, N-(1-(4-chlorophenyl)pyrrolidin-3-yl)-3,5-bis(trifluoromethyl)benzamide]	-10.5	-1.7			10.5	-4.6
